Measured values taken from patent publication US7776558B2, “Human G protein-coupled receptor and modulators thereof for the treatment of cell death-related disorders” (Arena Pharmaceuticals, Inc., priority 2003, dated 2010).
Entries after “also recorded” stand apart in the source; their conditions may differ. Where no end group is shown, it is not given here.

Experiments:
FPRL2 [1] = target: T1, FPRL2 (Homo sapiens, UniProt P25089); assay: Whole cell adenylate cyclase (cAMP) assay, stably transfected HEK293 cells; type: cell-based; parameters: expressed in transfected cells; details: in the presence of 5 μM forskolin, FIG. 6
T1 sequence (P25089 1-353): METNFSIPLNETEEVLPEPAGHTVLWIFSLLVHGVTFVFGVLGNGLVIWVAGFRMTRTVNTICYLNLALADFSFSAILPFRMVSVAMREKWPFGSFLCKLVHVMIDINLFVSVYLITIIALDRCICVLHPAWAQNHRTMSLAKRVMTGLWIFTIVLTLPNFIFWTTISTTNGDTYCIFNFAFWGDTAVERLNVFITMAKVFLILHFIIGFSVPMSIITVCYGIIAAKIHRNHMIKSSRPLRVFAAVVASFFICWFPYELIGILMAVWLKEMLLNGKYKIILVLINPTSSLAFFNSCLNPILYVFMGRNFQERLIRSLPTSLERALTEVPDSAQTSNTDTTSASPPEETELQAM
Text: A Flash Plate™ Adenylyl Cyclase kit (New England Nuclear; Cat. No. SMP004A) designed for cell-based assays can be modified for use with crude plasma membranes. The Flash Plate wells can contain a scintillant coating which also contains a specific antibody recognizing cAMP. The cAMP generated in the wells can be quantitated by a direct competition for binding of radioactive cAMP tracer to the cAMP antibody. The following serves as a brief protocol for the measurement of changes in cAMP levels in whole cells that express the receptors.
Transfected cells are harvested approximately twenty four hours after transient transfection. Media is carefully aspirated off and discarded. 10 ml of PBS is gently added to each dish of cells followed by careful aspiration. 1 ml of Sigma cell dissociation buffer and 3 ml of PBS are added to each plate. Cells are pipetted off the plate and the cell suspension is collected into a 50 ml conical centrifuge tube. Cells are then centrifuged at room temperature at 1,100 rpm for 5 min. The cell pellet is carefully re-suspended into an appropriate volume of PBS (about 3 ml/plate). The cells are then counted using a hemocytometer and additional PBS is added to give the appropriate number of cells (with a final volume of about 50 μl/well).
cAMP standards and Detection Buffer (comprising 1 μCi of tracer [^125I cAMP (50 μl] to 11 ml Detection Buffer) is prepared and maintained in accordance with the manufacturer's instructions. Assay Buffer is prepared fresh for screening and contains 50 μl of Stimulation Buffer, 3 ul of test compound (12 μM final assay concentration) and 50 μl cells, Assay Buffer is stored on ice until utilized. The assay is initiated by addition of 50 μl of cAMP standards to appropriate wells followed by addition of 50 ul of PBSA to wells H-11 and H12. 50 μl of Stimulation Buffer is added to all wells. DMSO (or selected candidate compounds) is added to appropriate wells using a pin tool capable of dispensing 3 μl of compound solution, with a final assay concentration of 12 μM test compound and 100 μl total assay volume. The cells are then added to the wells and incubated for 60 min at room temperature. 100 μl of Detection Mix containing tracer cAMP is then added to the wells. Plates are then incubated additional 2 hours followed by counting in a Wallac MicroBeta scintillation counter. Values of cAMP/well are then extrapolated from a standard cAMP curve which is contained within each assay plate.
In FIG. 6, agonist activity was determined through adenylate cyclase activity. […] Samples were then assessed for the level of intracellular cAMP as described in Example 4, supra.

FPRL2 [2] = target: T1, FPRL2; assay: IP3 assay, HEK293 cells transiently transfected with FPRL2 and Gα16; type: cell-based; parameters: expressed in transfected cells; host or cells: HEK293 cells, transient, lipofectamine; details: FIG. 8
Procedure: On day 1, cells comprising the receptors (endogenous and/or non-endogenous) can be plated onto 24 well plates, usually 1×10^5 cells/well (although his umber can be optimized. On day 2 cells can be transfected by firstly mixing 0.25 μg DNA in 50 μl serum free DMEM/well and 2 μl lipofectamine in 50 μl serum free DMEM/well. The solutions are gently mixed and incubated for 15-30 min at room temperature. Cells are washed with 0.5 ml PBS and 400 μl of serum free media is mixed with the transfection media and added to the cells. The cells are then incubated for 3-4 […] at 37° C./5% CO2 and then the transfection media is removed and replaced with 1 ml/well of regular growth media. On day 3 the cells are labeled with ^3H-myo-inositol. Briefly, the media is removed and the cells are washed with 0.5 ml PBS. Then 0.5 ml inositol-free/serum free media (GIBCO BRL) is added/well with 0.25 μCi of ^3H-myo-inositol/well and the cells are incubated for 16-18 hrs o/n at 37° C./5% CO2. On Day 4 the cells are washed with 0.5 ml PBS and 0.45 ml of assay medium is added containing inositol-free/serum free media 10 μM pargyline 10 mM lithium chloride or 0.4 ml of assay medium and 50 μl of 10× ketanserin (ket) to final concentration of 10 μM. The cells are then incubated for 30 min at 37° C. The cells are then washed with 0.5 ml PBS and 200 μl of fresh/ice cold stop solution (1M KOH; 18 mM Na-borate; 3.8 mM EDTA) is added/well. The solution is kept on ice for 5-10 min or until cells were lysed and then neutralized by 200 μl of fresh/ice cold neutralization sol. (7.5% HCL). The lysate is then transferred into 1.5 ml eppendorf tubes and 1 ml of chloroform/methanol (1:2) is added/tube. The solution is vortexed for 15 sec and the upper phase is applied to a Biorad AG1-X8™ anion exchange resin (100-200 mesh). […]
Briefly, HEK293 cells were transiently transfected with 6 μg FPRL2 plasmid DNA and 6 μg Gα16 plasmid DNA per 10^7 cells per 15 cm culture dish using lipofectamine (Invitrogen). […] The level of intracellular IP3 was determined as described in Example 4, supra.

Molecule: CC(C)c1ccc2c(c1)CCC1C(C)(C(N)=O)CCCC21C (stereo not shown) [Compound 1, 7-Isopropyl-1,4a-dimethyl-1,2,3,4,4a,9,10,10a-octahydro-phenanthrene-1-carboxylic acid amide]
- Agonist activity at FPRL2, intracellular cAMP (FPRL2 [1]): selectively an agonist of FPRL2
- Level of intracellular IP3 (FPRL2 coupling to Gα16) (FPRL2 [2]): dose-dependent elevation of the level of intracellular IP3

Molecule: CC[C@H](C)[C@H](NC(=O)[C@H](CCC(=O)O)NC(=O)[C@H](CO)NC(=O)[C@@H](NC(=O)[C@H](CC(C)C)NC(=O)[C@H](CC(C)C)NC(=O)[C@H](CC(C)C)NC(=O)[C@H](CC(C)C)NC(=O)[C@H](CS)NC(=O)[C@H](CO)NC(=O)[C@H](Cc1ccccc1)NC(=O)CNC(=O)[C@H](CCCNC(=N)N)NC(=O)[C@@H]1CCCN1C(=O)[C@H](C)NC(=O)[C@@H](N)CCSC)[C@@H](C)O)C(=O)N[C@@H](CC(=O)O)C(=O)N[C@@H](CC(C)C)C(=O)N1CCC[C@H]1C(=O)N[C@H](C(=O)N[C@@H](CCCCN)C(=O)N[C@@H](CCCNC(=N)N)C(=O)N[C@@H](CCCNC(=N)N)C(=O)N[C@@H](C)C(=O)O)C(C)C [Humanin]
- Agonist activity at FPRL2, intracellular cAMP (FPRL2 [1]): agonists of both FPRL1 and FPRL2
- Agonist activity at FPRL2, intracellular cAMP (FPRL2 [1]; listed as Human): agonists of both FPRL2 and FPRL1
- Level of intracellular IP3 (FPRL2 coupling to Gα16) (FPRL2 [2]): dose-dependent elevation of the level of intracellular IP3

Molecule: MAPRGFSCLLLLTGEIDLPVKRRA [[Gly14]-Humanin]
- Agonist activity at FPRL2, intracellular cAMP (FPRL2 [1]): agonists of both FPRL1 and FPRL2; also recorded: agonists of both FPRL2 and FPRL1
- Level of intracellular IP3 (FPRL2 coupling to Gα16) (FPRL2 [2]): dose-dependent elevation of the level of intracellular IP3
